# Assays:
# [1] = system: Staphylococcus isolates; test: Oxacillin Minimum Inhibitory Concentration (Ox MIC); assay type: cell-based, S. aureus and other Staphylococcus spp.
# [2] = system: mecA gene; Staphylococcus spp. and S. aureus ribosomal nucleic acids; test: HPA probe panel on clinical and ATCC isolates (Examples 8-9); assay type: binding
# Procedure: Oxacillin MIC results were provided by an outside laboratory. The GP Probe results were determined as described in Example 8.
molecule,measurement,setting,value
Cc1onc(-c2ccccc2)c1C(=O)N[C@@H]1C(=O)N2[C@@H]1SC(C)(C)[C@@H]2C(=O)O [Oxacillin],MIC,"[1]; Staphylococcus, Pos Control GP1217",> 16 µg/mL
same,MIC,"[1]; Staphylococcus, Table 14, S. hemoliticus, 1 isolate",≤ 0.25 µg/mL
same,MIC,"[1]; Staphylococcus, Table 14, S. hyicus-hyicus, 1 isolate",≤ 0.25 µg/mL
same,MIC,"[1]; Staphylococcus, Table 14, S. intermedius, 1 isolate",≤ 0.25 µg/mL
same,MIC,"[1]; Staphylococcus, clinical isolate GP21, determined at the collection site",< 0.25 µg/mL
same,MIC,"[1]; Staphylococcus, clinical isolate GP22, determined at the collection site",0.5 µg/mL
same,MIC,"[1]; Staphylococcus, clinical isolate GP23, determined at the collection site",< 0.25 µg/mL
same,MIC,"[1]; Staphylococcus, clinical isolate GP24, determined at the collection site",> 16 µg/mL
same,MIC,"[1]; Staphylococcus, clinical isolate GP25, determined at the collection site",> 16 µg/mL
same,MIC,"[1]; Staphylococcus, clinical isolate GP26, determined at the collection site",< 0.25 µg/mL
same,MIC,"[1]; Staphylococcus, clinical isolate GP27, determined at the collection site",< 0.25 µg/mL
same,MIC,"[1]; Staphylococcus, clinical isolate GP28, determined at the collection site",1 µg/mL
same,MIC,"[1]; Staphylococcus, clinical isolate GP29, determined at the collection site",> 16 µg/mL
same,MIC,"[1]; Staphylococcus, clinical isolate GP30, determined at the collection site",< 0.25 µg/mL
same,MIC,"[1]; Staphylococcus, clinical isolate GP31, determined at the collection site",> 16 µg/mL
same,MIC,"[1]; Staphylococcus, clinical isolate GP32, determined at the collection site",< 0.25 µg/mL
same,MIC,"[1]; Staphylococcus, clinical isolate GP33, determined at the collection site",> 16 µg/mL
same,MIC,"[1]; Staphylococcus, clinical isolate GP34, determined at the collection site",< 0.25 µg/mL
same,MIC,"[1]; Staphylococcus, clinical isolate GP35, determined at the collection site",> 16 µg/mL
same,MIC,"[1]; Staphylococcus, clinical isolate GP36, determined at the collection site",< 0.25 µg/mL
same,MIC,"[1]; Staphylococcus, clinical isolate GP37, determined at the collection site",> 16 µg/mL
same,MIC,"[1]; Staphylococcus, clinical isolate GP39, determined at the collection site",< 0.25 µg/mL
same,MIC,"[1]; Staphylococcus, clinical isolate GP40, determined at the collection site",< 0.25 µg/mL
same,MIC,"[1]; Table 14, ATCC MRSA, first isolate",8 µg/mL
same,MIC,"[1]; Table 14, ATCC MRSA, second isolate",16 µg/mL
same,MIC,"[1]; Table 14, ATCC MSSA, 1 isolate",1 µg/mL
same,MIC,"[1]; Table 14, ATCC MSSA, group of 4 isolates",0.5 µg/mL
same,MIC,"[1]; Table 14, ATCC MSSA, group of 6 isolates",≤ 0.25 µg/mL
same,MIC,"[1]; Table 14, Clinical MRSA, group of 8 isolates",16 µg/mL
same,MIC,"[1]; Table 14, Clinical MRSA, group of 13 isolates",8 µg/mL
same,MIC,"[1]; Table 14, Clinical MRSA, group of 14 isolates, provided by an outside laboratory",4 µg/mL
same,MIC,"[1]; Table 14, Clinical MRSA, group of 107 isolates",> 16 µg/mL
same,MIC,"[1]; Table 14, Clinical MSSA, group of 8 isolates",2 µg/mL
same,MIC,"[1]; Table 14, Clinical MSSA, group of 13 isolates",1 µg/mL
same,MIC,"[1]; Table 14, Clinical MSSA, group of 28 isolates",0.5 µg/mL
same,MIC,"[1]; Table 14, Clinical MSSA, group of 99 isolates",≤ 0.25 µg/mL
same,MIC,"[1]; Table 14, S. epidermidis, 1 isolate (mecA(+)), first",4 µg/mL
same,MIC,"[1]; Table 14, S. epidermidis, 1 isolate (mecA(+)), second",> 16 µg/mL
same,MIC,"[1]; Table 14, S. epidermidis, group of 2 isolates (mecA(−))",≤ 0.25 µg/mL
same,MIC,"[1]; Table 14, S. hominis, 1 isolate",≤ 0.25 µg/mL
same,MIC,"[1]; Table 14, S. saprophyticus, 1 isolate",0.5 µg/mL
same,MIC,"[1]; Table 14, S. simulans, 1 isolate",≤ 0.25 µg/mL
same,MIC,"[1]; Table 14, S. warneri, 1 isolate",≤ 0.25 µg/mL
same,Ox MIC,[1]; specimen 10 (mecA PCR Neg),8 µg/mL
same,Ox MIC,[1]; specimen 101 (mecA PCR Neg),4 µg/mL
same,Ox MIC,[1]; specimen 102 (mecA PCR Pos),4 µg/mL
same,Ox MIC,[1]; specimen 103 (mecA PCR Neg),4 µg/mL
same,Ox MIC,[1]; specimen 104 (mecA PCR Neg),2 µg/mL
same,Ox MIC,[1]; specimen 105 (mecA PCR Neg),2 µg/mL
same,Ox MIC,[1]; specimen 106 (mecA PCR Neg),2 µg/mL
same,Ox MIC,[1]; specimen 139 (mecA PCR Pos),4 µg/mL
same,Ox MIC,[1]; specimen 140 (mecA PCR Pos),16 µg/mL
same,Ox MIC,[1]; specimen 142 (mecA PCR Pos),4 µg/mL
same,Ox MIC,[1]; specimen 145 (mecA PCR Neg),4 µg/mL
same,Ox MIC,[1]; specimen 148 (mecA PCR Pos),4 µg/mL
same,Ox MIC,[1]; specimen 155 (mecA PCR Neg),4 µg/mL
same,Ox MIC,[1]; specimen 164 (mecA PCR Neg),2 µg/mL
same,Ox MIC,[1]; specimen 178 (mecA PCR Pos),2 µg/mL
same,Ox MIC,[1]; specimen 188 (mecA PCR Pos),2 µg/mL
same,Ox MIC,[1]; specimen 270 (mecA PCR Pos),<0.25 µg/mL
same,Ox MIC,"[1]; specimen #99 (mecA PCR Pos), reported by outside laboratory",4 µg/mL
same,Ox MIC,"[1]; specimen #100 (mecA PCR Neg), reported by outside laboratory",4 µg/mL
"CCACTCAAGAGAGACAACATTTTCGACTAC (AE label linker 22/23, with helper oligonucleotides, chemistry not fully specified; listed as Staphylococcus aureus) [S. aureus]",HPA Results (# positive for indicated probes),"[2]; ATCC MRSA, 1 isolate, Oxacillin MIC 16 μg/ml",1
same,HPA Results (# positive for indicated probes),"[2]; ATCC MSSA, 1 isolate, Oxacillin MIC 1 μg/ml",1
same,HPA Results (# positive for indicated probes),"[2]; ATCC MSSA, 4 isolates, Oxacillin MIC 0.5 μg/ml",4
same,HPA Results (# positive for indicated probes),"[2]; ATCC MSSA, 6 isolates, Oxacillin MIC ≦0.25 μg/ml",6
same,HPA Results (# positive for indicated probes),"[2]; Clinical MRSA, 8 isolates, Oxacillin MIC 16 μg/ml",8
same,HPA Results (# positive for indicated probes),"[2]; Clinical MRSA, 107 isolates, Oxacillin MIC >16 μg/ml",107
same,HPA Results (# positive for indicated probes),"[2]; Clinical MSSA, 28 isolates, Oxacillin MIC 0.5 μg/ml",28
same,HPA Results (# positive for indicated probes),"[2]; Clinical MSSA, 99 isolates, Oxacillin MIC ≦0.25 μg/ml",99
same,HPA Results (RLU),"[2]; GP21 (S. aureus, mecA(−), MSSA)",351348 RLU
same,HPA Results (RLU),"[2]; GP22 (CoNS, mecA(+))",7637 RLU
same,HPA Results (RLU),"[2]; GP23 (S. aureus, mecA(−))",280428 RLU
same,HPA Results (RLU),"[2]; GP24 (S. aureus, mecA(+))",274112 RLU
same,HPA Results (RLU),"[2]; GP25 (S. aureus, mecA(+))",408938 RLU
same,HPA Results (RLU),"[2]; GP26 (S. aureus, mecA(−))",241597 RLU
same,HPA Results (RLU),"[2]; GP27 (CoNS, mecA(−))",7057 RLU
same,HPA Results (RLU),"[2]; GP28 (S. aureus, mecA(−))",195759 RLU
same,HPA Results (RLU),"[2]; GP29 (S. aureus, mecA(+))",416372 RLU
same,HPA Results (RLU),"[2]; GP30 (S. aureus, mecA(−))",399498 RLU
same,HPA Results (RLU),"[2]; GP31 (S. aureus, mecA(+))",332750 RLU
same,HPA Results (RLU),"[2]; GP32 (S. aureus, mecA(−))",414709 RLU
same,HPA Results (RLU),"[2]; GP33 (S. aureus, mecA(+))",154183 RLU
same,HPA Results (RLU),"[2]; GP34 (S. aureus, mecA(−))",497890 RLU
same,HPA Results (RLU),"[2]; GP35 (S. aureus, mecA(+))",484580 RLU
same,HPA Results (RLU),"[2]; GP36 (S. aureus, mecA(−))",356243 RLU
same,HPA Results (RLU),"[2]; GP37 (S. aureus, mecA(+))",373448 RLU
same,HPA Results (RLU),"[2]; GP38 (S. aureus, mecA(+))",367728 RLU
same,HPA Results (RLU),"[2]; GP39 (S. aureus, mecA(−))",268665 RLU
same,HPA Results (RLU),"[2]; GP40 (S. aureus, mecA(−))",283200 RLU
same,HPA Results (RLU),[2]; Neg Control (Hybridization Buffer),3472 RLU
same,HPA Results (RLU),"[2]; Pos Control GP1217 (S. aureus, mecA(+), MRSA)",162795 RLU
same,HPA Results (# positive for indicated probes),"[2]; S. epidermidis, 1 isolate, Oxacillin MIC >16 μg/ml",0
same,HPA Results (# positive for indicated probes),"[2]; S. epidermidis, 2 isolates, Oxacillin MIC ≦0.25 μg/ml",0
same,HPA Results (# positive for indicated probes),"[2]; S. hemoliticus, 1 isolate, Oxacillin MIC ≦0.25 μg/ml",0
same,HPA Results (# positive for indicated probes),"[2]; S. hominis, 1 isolate, Oxacillin MIC ≦0.25 μg/ml",0
same,HPA Results (# positive for indicated probes),"[2]; S. hyicus-hyicus, 1 isolate, Oxacillin MIC ≦0.25 μg/ml",0
same,HPA Results (# positive for indicated probes),"[2]; S. intermedius, 1 isolate, Oxacillin MIC ≦0.25 μg/ml",0
same,HPA Results (# positive for indicated probes),"[2]; S. saprophyticus, 1 isolate, Oxacillin MIC 0.5 μg/ml",0
same,HPA Results (# positive for indicated probes),"[2]; S. simulans, 1 isolate, Oxacillin MIC ≦0.25 μg/ml",0
same,HPA Results (# positive for indicated probes),"[2]; S. warneri, 1 isolate, Oxacillin MIC ≦0.25 μg/ml",0

# Reference: US20040229268A1, “Method and kit for identifying antibiotic-resistant microorganisms” (priority 2003, published 2004)
